# Reference: patent US20240025849A1 (MAX DELBRÜCK-CENTRUM FÜR MOLEKULARE MEDIZIN IN DER …, priority 2020, published 2024)
# Entries after “also recorded” stand apart in the source; their conditions may differ.
# Assays:
# [1] = test system: primary cultured microglial cells; assay: Flow cytometry-based phagocytosis assay; type: cell-based, mouse; settings: 2.5 μM C1
# Procedure: Flow cytometry-based phagocytosis assay. 10^6 primary cultured microglial cells were seeded into 3.5 cm dishes in plain medium overnight at standard conditions. The cells were treated for 1 hour with 2.5 μM C1 in DMSO, 125×10^−5 v/v DMSO respectively, or plain medium only. To stimulate microglia, LPS (1 μg/ml) was added for additional 24 hours. Fluoresbrite Carboxylate Microspheres (BrightBlue, 4.5 μm, Polyscience, Niles, USA) were coated with fetal calf serum for 30 min at room temperature, and subsequently centrifuged at 3000 g for 2 min at room temperature. The beads were resuspended in HBSS at a final concentration of 2×10^6 beads per ml. The microglia culture was washed once with HBSS (37° C.) before 1 ml bead solution was applied. The cells were incubated with the beads for 30 min at 37° C. Afterwards, microglia were washed twice with ice cold HBSS, scratched off and pulled down at 500 g for 5 min. The cells were resuspended in a propidium iodide solution (1:200 in HBSS) to stain dead cells. The stained cells were transferred to a BD LSRFortessa Flow cytometer (BD Bioscience, Sparks, USA). The median intensity of the bright blue beads was calculated using Flowlo v10 software (Ashland, USA). The data of each experiment was normalised to the unstimulated media control.
# eNOS = molecular target: T1, eNOS (Homo sapiens, UniProt P29474); assay: NOS enzyme activity assay (Eurofins), eNOS; type: biochemical; settings: C1: 1 nM and 1 μM; 30 min reaction
# T1 construct: Eurofins (contract assay service)
# Procedure: To evaluate the direct influence of cl on the different isoforms of NOS, an enzyme activity assay was conducted by Eurofins. C1 was mixed with the enzyme buffer, which included co-factors and substrates and by adding the enzyme the reaction was initiated. After 30 min the reaction was stopped, and NO concentration was measured. The results are normalised to positive control performed without any additional compounds and are presented as percentage in inhibition. […] To test the compounds effect on iNOS a concentration range from 1 μM up to 5 μM were applied (1, 10, 100 μM, 1, 10, 100 nM, 1, and 5 μM), and for testing eNOS and nNOS 1 nM and 1 μM were applied.
# [2] = test system: primary cultured neonatal microglia; assay: AlamarBlue assay (metabolic activity / cell viability) in microglia; type: cell-based, mouse
# Procedure: Primary cultured neonatal microglia. For preparation of cultured neonatal microglia, P0-P3 mice were used. 10 brains were extracted, meninges and cerebellum were removed and put on ice with Hank's balanced salt solution (HBSS). The dissected brains were washed 3 times before adding 400 μL trypsin (0.1 mg/L) and DNAse (5 μg/L) in phosphate buffered saline (PBS). After 2 min of incubation with this solution, the reaction was blocked by adding plain medium. After removal of the medium, 1 mg DNAse was added and the cells were mechanically dissociated, with a Pasteur pipette followed by a glass pipette. The cells were centrifuged for 10 min at 129 g at 4° C. The supernatant was discarded. The pellet was resuspended in plain medium and plated (2.5 brains/flask) in Poly-L-Lysine coated flasks. The cells were washed after 2 days with PBS and incubated for another 7 days in plain medium. Afterwards the medium was replaced by plain medium with 33% L929 conditioned medium. After 2 days, cells were harvested by shaking them for 30 min at 150 rpm. The supernatant was centrifuged for 10 min at 129 g at 4° C. The cells were plated into a 96 well plate (100 000 cells/well, 200 μL medium per well). This procedure could be repeated 2 times with a 2 day interval.
# Concentration-dependent validation and viability determination. Concentrated stock solutions of compounds identified from primary screening were rearranged onto anew 384-well plate, and 10 sequential 2-fold serial dilutions were created across multiple plates in DMSO. Starting from these diluted compound mother plates, the protocol was repeated exactly as for primary screening to span the concentration range between 5 μM and 20 nM. In order to obtain the 10 μM and 20 μM concentration points, 1000 n1 and 2000 n1 were transferred from the 500 μM pre-dilution plate, respectively. Each concentration was measured in duplicate. Normalized percent activities were plotted against the compound concentration to obtain the IC50 values. To obtain also information about the impact of compounds on cell viability, a second batch of plates was prepared as described above, but 5 μl of Alamar Blue solution was added after 48 hours instead of Griess reagent and incubation was continued for additional 4 hours at 37° C. Finally, the resorufin fluorescence was detected at an excitation wavelength of 530 nm and emission of 570 nm. Since no control samples were present on the assay plate for data normalization of cell viability, the raw data values were added on the second y-scale to the IC50 plots.
# AlamarBlue assay. […] The conversion of resazurin to resorufin was measured by absorbance (absorbance wavelength of 570 nm and a reference wavelength of 600 nm) after 3 hours.
# [3] = test system: primary cultured neonatal microglia; assay: LPS induced NO release, HTS setup (Griess reagent); type: cell-based; settings: Mus musculus, 1 h pre-treatment, 1 μg/ml LPS 48 h, read-out: IC50, LPS-induced production of NO
# Procedure: Primary cultured neonatal microglia. For preparation of cultured neonatal microglia, P0-P3 mice were used. 10 brains were extracted, meninges and cerebellum were removed and put on ice with Hank's balanced salt solution (HBSS). The dissected brains were washed 3 times before adding 400 μL trypsin (0.1 mg/L) and DNAse (5 μg/L) in phosphate buffered saline (PBS). After 2 min of incubation with this solution, the reaction was blocked by adding plain medium. After removal of the medium, 1 mg DNAse was added and the cells were mechanically dissociated, with a Pasteur pipette followed by a glass pipette. The cells were centrifuged for 10 min at 129 g at 4° C. The supernatant was discarded. The pellet was resuspended in plain medium and plated (2.5 brains/flask) in Poly-L-Lysine coated flasks. […]
# High throughput screening (HTS). […] Incubation with LPS and compounds was continued for 48 hours, followed by addition of 25 μl of 2-fold concentrated Griess reagent and absorbance reading at 540 nm in a plate reader (Safire2, Tecan, Maennedorf, Switzerland). Active compounds were identified by decreased Z-scores of the absorbance signal. […]
# Concentration-dependent validation and viability determination. […] Each concentration was measured in duplicate. […] Finally, the resorufin fluorescence was detected at an excitation wavelength of 530 nm and emission of 570 nm. […]
compound,measurement,setting,value
COc1ccc(NC(=O)C(NC(=O)C2CCCN2C(=O)OCc2ccccc2)c2ccc(OC)cc2)cc1 (stereo not drawn) [C1],"phagocytic activity, basal conditions",[1],neither C1 nor DMSO changes microglial phagocytosis significantly; also recorded: did not alter
same,increase of phagocytosis upon LPS compared to own unstimulated control,[1]; 1 μg/mL LPS 24 hours,+45%
same,"phagocytic activity, LPS stimulated conditions",[1]; 1 μg/mL LPS 24 hours,no significant differences; also recorded: did not alter
same,enzymatic activity of eNOS,eNOS,does not interfere
same,cell viability,"[2]; 2 nM to 20 μM, 1 μg/ml LPS 48 h",no effects on cell viability
same,metabolic activity,"[2]; 20 μM C1, 1 μg/mL LPS 48 h",84%±3.99
same,metabolic activity in unstimulated microglia,"[2]; C1 alone 0.025, 0.25, 2.5 μM, 48 hours",did not show any significant difference; also recorded: nor did it interfere with the metabolic activity
same,metabolic activity (AlamarBlue),"[2]; HTS setup, LPS stimulated",remained stable
same,IC50,[3],224 nM
